{"source": "paper PMC5218480", "about": "(PLoS ONE, 2017)", "tested_on": "MV-4-11 cells", "test": "Gene expression microarray analysis (Affymetrix PrimeView) and GSEA", "type": "cell-based, human", "set-up": "RFU PODN (11730768_x_at) / Fold change /veh PODN (11730768_x_at) / RFU LINC00158 (11744669_a_at) / Fold change /veh LINC00158 (11744669_a_at) / RFU DUSP10 (11751237_a_at) / Fold change /veh DUSP10 (11751237_a_at) / RFU ID3 (11757404_x_at) / Fold change /veh ID3 (11757404_x_at) / RFU PLEKHG5 (11737974_s_at) / Fold change /veh PLEKHG5 (11737974_s_at) / RFU LRRC4B (11730491_at) / Fold change /veh LRRC4B (11730491_at) / RFU GIMAP4 (11747438_a_at) / Fold change /veh GIMAP4 (11747438_a_at) / RFU KRT8 (11758183_x_at) / Fold change /veh KRT8 (11758183_x_at) / RFU CNN1 (11734310_a_at) / Fold change /veh CNN1 (11734310_a_at) / RFU VPS37D (11726825_at) / Fold change /veh VPS37D (11726825_at) / RFU C10orf10 (11716522_x_at) / Fold change /veh C10orf10 (11716522_x_at) / RFU KIR2DL2 /// KIR2DL4 /// KIR2DL5A /// KIR2DL5B /// KIR2DS1 /// KIR2DS2 /// KIR2DS3 /// KIR2DS4 /// KIR3DL3 /// KIR3DL3 /// KIR3DS1 (11738374_at) / Fold change /veh KIR2DL2 /// KIR2DL4 /// KIR2DL5A /// KIR2DL5B /// KIR2DS1 /// KIR2DS2 /// KIR2DS3 /// KIR2DS4 /// KIR3DL3 /// KIR3DL3 /// KIR3DS1 (11738374_at) / RFU C1QL1 (11718748_at) / Fold change /veh C1QL1 (11718748_at) / RFU TMPRSS4 (11747572_a_at) / Fold change /veh TMPRSS4 (11747572_a_at) / RFU HAMP (11756126_x_at) / Fold change /veh HAMP (11756126_x_at) / RFU RNFT2 (11725882_a_at) / Fold change /veh RNFT2 (11725882_a_at) / RFU NR4A2 (11747474_a_at) / Fold change /veh NR4A2 (11747474_a_at) / RFU ABCC12 (11746883_a_at) / Fold change /veh ABCC12 (11746883_a_at) / RFU TMEM136 (11760407_x_at) / Fold change /veh TMEM136 (11760407_x_at) / RFU CLDN22 /// WWC2 (11732394_at) / Fold change /veh CLDN22 /// WWC2 (11732394_at) / RFU HLA-DPB1 (11760878_x_at) / Fold change /veh HLA-DPB1 (11760878_x_at) / RFU SPINT1 (11716480_a_at) / Fold change /veh SPINT1 (11716480_a_at) / RFU GAP43 (11754022_s_at) / Fold change /veh GAP43 (11754022_s_at) / RFU A4GNT (11735810_at) / Fold change /veh A4GNT (11735810_at) / RFU PRB3 (11715151_x_at) / Fold change /veh PRB3 (11715151_x_at) / RFU TUBB4B (11761932_at) / Fold change /veh TUBB4B (11761932_at) / RFU CAPN14 (11732068_a_at) / Fold change /veh CAPN14 (11732068_a_at) / RFU TMCC2 (11721928_a_at) / Fold change /veh TMCC2 (11721928_a_at) / RFU IRGQ (11745062_a_at) / Fold change /veh IRGQ (11745062_a_at) / RFU FAM174B (11720279_a_at) / Fold change /veh FAM174B (11720279_a_at) / RFU TMPRSS4 (11748680_a_at) / Fold change /veh TMPRSS4 (11748680_a_at) / RFU FAM212B (11763350_a_at) / Fold change /veh FAM212B (11763350_a_at) / RFU PLEKHG5 (11743358_a_at) / Fold change /veh PLEKHG5 (11743358_a_at) / RFU ZSCAN30 (11745921_a_at) / Fold change /veh ZSCAN30 (11745921_a_at) / RFU CMKLR1 (11741424_a_at) / Fold change /veh CMKLR1 (11741424_a_at) / RFU LOC101060620 /// MAPK8IP1 (11723275_at) / Fold change /veh LOC101060620 /// MAPK8IP1 (11723275_at) / RFU SPTSSB (11747773_x_at) / Fold change /veh SPTSSB (11747773_x_at) / RFU PRSS12 (11739890_at) / Fold change /veh PRSS12 (11739890_at) / RFU BIN1 (11741810_x_at) / Fold change /veh BIN1 (11741810_x_at) / RFU WNT11 (11732464_a_at) / Fold change /veh WNT11 (11732464_a_at) / RFU C10orf10 (11716521_a_at) / Fold change /veh C10orf10 (11716521_a_at) / RFU C5orf56 (11738089_at) / Fold change /veh C5orf56 (11738089_at) / RFU CYB561 (11721691_x_at) / Fold change /veh CYB561 (11721691_x_at) / RFU ANKRD19P (11752326_a_at) / Fold change /veh ANKRD19P (11752326_a_at) / RFU OR2T12 /// OR2T33 /// OR2T8 (11738714_s_at) / Fold change /veh OR2T12 /// OR2T33 /// OR2T8 (11738714_s_at) / RFU VCAN (11748164_a_at) / Fold change /veh VCAN (11748164_a_at) / RFU JSRP1 (11732532_at) / Fold change /veh JSRP1 (11732532_at) / RFU KRTAP10-11 (11738290_x_at) / Fold change /veh KRTAP10-11 (11738290_x_at) / RFU MYO3A (11730013_a_at) / Fold change /veh MYO3A (11730013_a_at) / RFU EBF3 (11725865_a_at) / Fold change /veh EBF3 (11725865_a_at) / RFU CAMK2N1 (11719241_x_at) / Fold change /veh CAMK2N1 (11719241_x_at) / RFU C5orf56 (11738088_a_at) / Fold change /veh C5orf56 (11738088_a_at) / RFU OLFML3 (11715873_a_at) / Fold change /veh OLFML3 (11715873_a_at) / RFU LOC100653217 /// NTM (11731650_a_at) / Fold change /veh LOC100653217 /// NTM (11731650_a_at) / RFU MAPK11 (11762145_a_at) / Fold change /veh MAPK11 (11762145_a_at) / RFU FIZ1 (11724087_x_at) / Fold change /veh FIZ1 (11724087_x_at) / RFU OASL (11726364_x_at) / Fold change /veh OASL (11726364_x_at) / RFU SOX15 (11748057_x_at) / Fold change /veh SOX15 (11748057_x_at) / RFU CD79A (11719716_a_at) / Fold change /veh CD79A (11719716_a_at) / RFU HIST1H1D (11736915_at) / Fold change /veh HIST1H1D (11736915_at) / RFU CASKIN2 (11723855_a_at) / Fold change /veh CASKIN2 (11723855_a_at) / RFU LOC730098 (11760151_x_at) / Fold change /veh LOC730098 (11760151_x_at) / RFU OR4N2 (11742367_at) / Fold change /veh OR4N2 (11742367_at) / RFU PRRT2 (11749266_a_at) / Fold change /veh PRRT2 (11749266_a_at) / RFU SNX32 (11753110_a_at) / Fold change /veh SNX32 (11753110_a_at) / RFU CDHR5 (11726645_a_at) / Fold change /veh CDHR5 (11726645_a_at) / RFU RCAN1 (11760418_a_at) / Fold change /veh RCAN1 (11760418_a_at) / RFU FAM167A (11723789_a_at) / Fold change /veh FAM167A (11723789_a_at) / RFU FAM26E (11764081_at) / Fold change /veh FAM26E (11764081_at) / RFU ISYNA1 (11749810_s_at) / Fold change /veh ISYNA1 (11749810_s_at) / RFU ACY1 (11761880_at) / Fold change /veh ACY1 (11761880_at) / RFU 11764098_at / Fold change /veh 11764098_at / RFU SAMD14 (11745864_x_at) / Fold change /veh SAMD14 (11745864_x_at) / RFU NPB (11741838_a_at) / Fold change /veh NPB (11741838_a_at) / RFU TMPRSS6 (11731388_a_at) / Fold change /veh TMPRSS6 (11731388_a_at) / RFU KRTAP10-2 (11738614_at) / Fold change /veh KRTAP10-2 (11738614_at) / RFU ARHGAP8 /// PRR5-ARHGAP8 (11727945_x_at) / Fold change /veh ARHGAP8 /// PRR5-ARHGAP8 (11727945_x_at) / RFU KRTAP5-7 /// NADSYN1 (11734609_at) / Fold change /veh KRTAP5-7 /// NADSYN1 (11734609_at) / RFU RASL12 (11751679_a_at) / Fold change /veh RASL12 (11751679_a_at) / RFU CDKN2B (11736163_a_at) / Fold change /veh CDKN2B (11736163_a_at) / RFU PRF1 (11729649_at) / Fold change /veh PRF1 (11729649_at) / RFU, ZNF638 /// ZNF638-IT1 / Fold change vs veh, ZNF638 /// ZNF638-IT1 / RFU, PANK3 / Fold change vs veh, PANK3 / RFU, SH3YL1 / Fold change vs veh, SH3YL1 / RFU, ZEB2 / Fold change vs veh, ZEB2 / RFU, NRIP1 / Fold change vs veh, NRIP1 / RFU, PTTG1IP / Fold change vs veh, PTTG1IP / RFU, CAPN2 / Fold change vs veh, CAPN2 / RFU, MED14 / Fold change vs veh, MED14 / RFU, SNORA58 / Fold change vs veh, SNORA58 / RFU, C1orf63 / Fold change vs veh, C1orf63 / RFU, LRRFIP1 / Fold change vs veh, LRRFIP1 / RFU, NDUFAF7 / Fold change vs veh, NDUFAF7 / RFU, SLC12A2 / Fold change vs veh, SLC12A2 / RFU, IBTK / Fold change vs veh, IBTK / RFU, ESF1 / Fold change vs veh, ESF1 / Fold change vs veh, TMEM50B / RFU, TAOK1 / Fold change vs veh, TAOK1 / RFU, ACBD3 / Fold change vs veh, ACBD3 / RFU, TMA16 / Fold change vs veh, TMA16 / RFU, RWDD3 / Fold change vs veh, RWDD3 / RFU, BCAT1 / Fold change vs veh, BCAT1 / RFU, EDEM3 / Fold change vs veh, EDEM3 / RFU, TMEM33 / Fold change vs veh, TMEM33 / RFU, WDR75 / Fold change vs veh, WDR75 / RFU, AHCTF1 / Fold change vs veh, AHCTF1 / RFU, TFRC / Fold change vs veh, TFRC / RFU, ZDHHC17 / Fold change vs veh, ZDHHC17 / RFU, NOM1 / Fold change vs veh, NOM1 / RFU, ARL8B / Fold change vs veh, ARL8B / RFU, ZBTB11 / Fold change vs veh, ZBTB11 / RFU, TAMM41 / Fold change vs veh, TAMM41 / RFU, KIAA1704 /// LOC100996395 / Fold change vs veh, KIAA1704 /// LOC100996395 / RFU, ING1 / Fold change vs veh, ING1 / RFU, TRMT61B / Fold change vs veh, TRMT61B / RFU, FUBP3 / Fold change vs veh, FUBP3 / RFU, TP53 / Fold change vs veh, TP53 / RFU, TNKS2 / Fold change vs veh, TNKS2 / RFU, ZFP14 / Fold change vs veh, ZFP14 / RFU, ACTR2 / Fold change vs veh, ACTR2 / RFU, PPP3R1 / Fold change vs veh, PPP3R1 / RFU, PIK3R1 / Fold change vs veh, PIK3R1 / RFU, HNRNPA1 / Fold change vs veh, HNRNPA1 / RFU, RNF170 / Fold change vs veh, RNF170 / RFU, ZNF28 / Fold change vs veh, ZNF28 / RFU, RNGTT / Fold change vs veh, RNGTT / RFU, OGT / Fold change vs veh, OGT / RFU, BRD1 / Fold change vs veh, BRD1 / RFU, MARS / Fold change vs veh, MARS / RFU, ZNF655 / Fold change vs veh, ZNF655 / RFU, FAHD1 / Fold change vs veh, FAHD1 / RFU, BDP1 / Fold change vs veh, BDP1 / RFU, LRRCC1 / Fold change vs veh, LRRCC1 / RFU, ARID1A / Fold change vs veh, ARID1A / RFU, ZNF146 / Fold change vs veh, ZNF146 / RFU, ZNF330 / Fold change vs veh, ZNF330 / RFU, GPN3 / Fold change vs veh, GPN3 / RFU, C9orf123 / Fold change vs veh, C9orf123 / RFU, N4BP2L2 / Fold change vs veh, N4BP2L2 / RFU, ARFIP1 / Fold change vs veh, ARFIP1 / RFU, FAM179B / Fold change vs veh, FAM179B / RFU, BCL10 / Fold change vs veh, BCL10 / RFU, UHRF1BP1L / Fold change vs veh, UHRF1BP1L / RFU, BET1 / Fold change vs veh, BET1 / RFU, CNOT2 / Fold change vs veh, CNOT2 / RFU, ZNF268 / Fold change vs veh, ZNF268 / Fold change vs veh, ZNF507 / RFU, DGCR2 / Fold change vs veh, DGCR2 / RFU, WDSUB1 / Fold change vs veh, WDSUB1 / Fold change vs veh, HSP90B1 /// MIR3652 / RFU, ADSS / Fold change vs veh, ADSS / RFU, GK / Fold change vs veh, GK / RFU, ZNF148 / Fold change vs veh, ZNF148 / RFU, TAF9 / Fold change vs veh, TAF9 / RFU, SLC1A5 / Fold change vs veh, SLC1A5 / RFU, SLMO2 / Fold change vs veh, SLMO2 / RFU, ABCC4 / Fold change vs veh, ABCC4 / RFU, LOC101060439 /// RAP1B / Fold change vs veh, LOC101060439 /// RAP1B / RFU, RFX7 / Fold change vs veh, RFX7 / RFU, GTPBP10 / Fold change vs veh, GTPBP10 / RFU, CNEP1R1 / Fold change vs veh, CNEP1R1 / RFU, BIVM-ERCC5 /// ERCC5 / Fold change vs veh, BIVM-ERCC5 /// ERCC5 / RFU, ILF3 / Fold change vs veh, ILF3 / RFU 11762660_at / Fold change /veh 11762660_at / RFU VCAN (11757783_s_at) / Fold change /veh VCAN (11757783_s_at) / RFU DDX43 (11728927_at) / Fold change /veh DDX43 (11728927_at) / RFU KRT8 (11758188_x_at) / Fold change /veh KRT8 (11758188_x_at) / RFU NKD1 (11759106_at) / Fold change /veh NKD1 (11759106_at) / RFU SRD5A1 (11742802_a_at) / Fold change /veh SRD5A1 (11742802_a_at) / RFU TPSAB1 /// TPSB2 (11721975_s_at) / Fold change /veh TPSAB1 /// TPSB2 (11721975_s_at) / RFU GSTM3 (11746129_a_at) / Fold change /veh GSTM3 (11746129_a_at) / RFU IL23R (11737362_x_at) / Fold change /veh IL23R (11737362_x_at) / RFU TMEM51 (11727254_a_at) / Fold change /veh TMEM51 (11727254_a_at) / RFU PIWIL2 (11732686_x_at) / Fold change /veh PIWIL2 (11732686_x_at) / RFU ORM1 (11744905_x_at) / Fold change /veh ORM1 (11744905_x_at) / RFU CCDC152 (11743942_at) / Fold change /veh CCDC152 (11743942_at) / RFU ECM1 (11717891_a_at) / Fold change /veh ECM1 (11717891_a_at) / RFU IL23R (11748794_a_at) / Fold change /veh IL23R (11748794_a_at) / RFU TNFAIP8L3 (11732012_x_at) / Fold change /veh TNFAIP8L3 (11732012_x_at) / RFU MBOAT4 (11741988_at) / Fold change /veh MBOAT4 (11741988_at) / RFU 11764193_at / Fold change /veh 11764193_at / RFU TMEM53 (11763286_at) / Fold change /veh TMEM53 (11763286_at) / RFU MAGEB2 (11727129_at) / Fold change /veh MAGEB2 (11727129_at) / RFU TMEM200A (11744735_a_at) / Fold change /veh TMEM200A (11744735_a_at) / RFU CCDC152 (11751479_a_at) / Fold change /veh CCDC152 (11751479_a_at) / RFU FAM211A (11726209_a_at) / Fold change /veh FAM211A (11726209_a_at) / RFU RGS16 (11746705_a_at) / Fold change /veh RGS16 (11746705_a_at) / RFU VCAN (11755009_s_at) / Fold change /veh VCAN (11755009_s_at) / RFU RHOB (11743442_s_at) / Fold change /veh RHOB (11743442_s_at) / RFU RGS16 (11720943_a_at) / Fold change /veh RGS16 (11720943_a_at) / RFU RGS16 (11720944_at) / Fold change /veh RGS16 (11720944_at) / RFU, VPS4B / Fold change vs veh, VPS4B / RFU, CREB1 / Fold change vs veh, CREB1 / RFU, DNAJC13 / Fold change vs veh, DNAJC13 / RFU, GNAQ / Fold change vs veh, GNAQ / RFU, CDK5R1 / Fold change vs veh, CDK5R1 / RFU, ZRANB3 / Fold change vs veh, ZRANB3 / RFU, CUL4A / Fold change vs veh, CUL4A / RFU, CCNY / Fold change vs veh, CCNY / RFU, UFL1 / Fold change vs veh, UFL1 / RFU, COG3 / Fold change vs veh, COG3 / RFU, DIAPH2 / Fold change vs veh, DIAPH2 / RFU, SKA2 / Fold change vs veh, SKA2 / RFU, AFF3 / Fold change vs veh, AFF3 / RFU, LMF1 / Fold change vs veh, LMF1 / RFU, IPO11 / Fold change vs veh, IPO11 / RFU, DFFB / Fold change vs veh, DFFB / RFU, FOXP1 / Fold change vs veh, FOXP1 / RFU, CARD8 / Fold change vs veh, CARD8 / RFU, STRN3 / Fold change vs veh, STRN3 / RFU, ADK / Fold change vs veh, ADK / RFU, RASSF2 / Fold change vs veh, RASSF2 / RFU, WIPF1 / Fold change vs veh, WIPF1 / RFU, LARP1B / Fold change vs veh, LARP1B / RFU, RASA1 / Fold change vs veh, RASA1 / RFU, RB1 / Fold change vs veh, RB1 / RFU, PPFIA1 / Fold change vs veh, PPFIA1 / RFU, MAT2A / Fold change vs veh, MAT2A / RFU, CCT5 / Fold change vs veh, CCT5 / RFU, WDR92 / Fold change vs veh, WDR92 / RFU, CUX1 / Fold change vs veh, CUX1 / RFU, TTC7A / Fold change vs veh, TTC7A / RFU, TMEM135 / Fold change vs veh, TMEM135 / RFU, DEPTOR / Fold change vs veh, DEPTOR / RFU, CPM / Fold change vs veh, CPM / RFU, DNAJB6 / Fold change vs veh, DNAJB6 / RFU, CACNA2D3 / Fold change vs veh, CACNA2D3 / RFU, DTX4 / Fold change vs veh, DTX4 / RFU, TFCP2 / Fold change vs veh, TFCP2 / RFU, GMCL1 /// GMCL1P1 / Fold change vs veh, GMCL1 /// GMCL1P1 / RFU, AEBP2 / Fold change vs veh, AEBP2 / RFU, SNHG1 /// SNORD22 /// SNORD25 /// SNORD26 /// SNORD27 /// SNORD28 /// SNORD29 /// SNORD31 / Fold change vs veh, SNHG1 /// SNORD22 /// SNORD25 /// SNORD26 /// SNORD27 /// SNORD28 /// SNORD29 /// SNORD31 / Fold change (Aza/veh), C12orf56 (ProbeSet 11735607_a_at) / Fold change (ACY-1035/veh), C12orf56 (ProbeSet 11735607_a_at) / Fold change (Aza/veh), FGFR1OP (ProbeSet 11751329_s_at) / Fold change (ACY-1035/veh), FGFR1OP (ProbeSet 11751329_s_at) / Fold change (Aza/veh), VPS36 (ProbeSet 11739960_a_at) / Fold change (ACY-1035/veh), VPS36 (ProbeSet 11739960_a_at) / RFU SYPL1 (11715823_x_at) / Fold change /veh SYPL1 (11715823_x_at) / RFU IGFBP7 (11715501_s_at) / Fold change /veh IGFBP7 (11715501_s_at) / RFU REEP3 (11722064_at) / Fold change /veh REEP3 (11722064_at) / RFU IGLL1 (11728026_x_at) / Fold change /veh IGLL1 (11728026_x_at): dose or concentration left out as unconfirmed", "details": "ProbeSet 11759094_a_at; LIST D"}
{"molecule": "Nc1ccc(-c2cccs2)cc1NC(=O)c1ccc2c(c1)cc(C1CC1)n2CCN1CCOCC1", "note": "[ACY-1035]", "values": [{"measurement": "Fold change vs veh, GNAQ", "result": 0.89}]}
